# Test results reported in US10934309B2, “Tricyclic quinone derivative” (Boston Biomedical, Inc., priority 2014, dated 2021).
# Columns and labels:
# Assay type in all cases: cell-based, human
# [1] = tested on: HT-29 cells; assay: Inhibition assay of cancer cell sphere-forming ability (Test Example 2), HT-29; details: HT-29 cells, Ultra-Low Attachment plate, serum-free DMEM/F12 with B27, EGF, bFGF, insulin, 4 days, Cell Titer-Glo, read-out: IC50 (μM) HT, concentration for 50% inhibition of cell proliferation (Sphere IC50 value)
# Experimental: (§1) HCT-116 cells (derived from human colon adenocarcinoma), HT-29 cells (derived from human colon cancer), FaDu cells (derived from human hypopharynx cancer) were obtained from American Type Culture Collection (ATCC). […] HCT-116 cells, HT-29 cells, and FaDu cells were seeded onto 384 Well Black Clear Bottom Ultra-Low Attachment Microplate (Corning Cat. […] A test substance was added so that the final concentration of DMSO is 0.1%, and then cultured for 4 days. […] A test shown in Test example 2 was carried out for compounds obtained in the Examples.
# [2] = tested on: FaDu cells; assay: Inhibition assay of cancer cell sphere-forming ability (Test Example 2), FaDu; details: FaDu cells, Ultra-Low Attachment plate, serum-free DMEM/F12 with B27, EGF, bFGF, insulin, 4 days, Cell Titer-Glo, read-out: IC50 (μM) FaDu, concentration for 50% inhibition of cell proliferation (Sphere IC50 value)
# Experimental: as §1
# [3] = tested on: FaDu cells; assay: Proliferation inhibition assay of cancer cells (Test Example 1), FaDu; details: FaDu cells, cultured for 4 days, Cell Titer-Glo, read-out: IC50 (μM) FaDu, concentration for 50% inhibition of cell proliferation (Bulk IC50 value)
# Experimental: (§2) HCT-116 cells (derived from human colon adenocarcinoma), HT-29 cells (derived from human colon cancer), and FaDu cells (derived from human hypopharynx cancer) were obtained from American Type Culture Collection (ATCC). […] After cells were seeded at 300-600 cells/well onto black μClear-plate 384 well (Greiner bio-one Cat. No. 781091), a test substance was added such that the final concentration of DMSO is 0.1%, and cultured for 4 days. […] A test shown in Test example 1 was carried out for compounds obtained in the Examples.
# [4] = tested on: HCT-116 cells; assay: Inhibition assay of cancer cell sphere-forming ability (Test Example 2), HCT-116; details: HCT-116 cells, Ultra-Low Attachment plate, serum-free DMEM/F12 with B27, EGF, bFGF, insulin, 4 days, Cell Titer-Glo, read-out: IC50 (μM) HCT, concentration for 50% inhibition of cell proliferation (Sphere IC50 value)
# Experimental: as §1
# [5] = tested on: HCT-116 cells; assay: Proliferation inhibition assay of cancer cells (Test Example 1), HCT-116; details: HCT-116 cells, cultured for 4 days, Cell Titer-Glo, read-out: IC50 (μM) HCT, concentration for 50% inhibition of cell proliferation (Bulk IC50 value)
# Experimental: as §2
# [6] = tested on: HT-29 cells; assay: Proliferation inhibition assay of cancer cells (Test Example 1), HT-29; details: HT-29 cells, cultured for 4 days, Cell Titer-Glo, read-out: IC50 (μM) HT, concentration for 50% inhibition of cell proliferation (Bulk IC50 value)
# Experimental: as §2
SMILES,"IC50 ([1]; Homo sapiens, HT-29, 96 h) [µM]","IC50 ([2]; Homo sapiens, FaDu, 96 h) [µM]","IC50 ([3]; Homo sapiens, FaDu, 96 h) [µM]","IC50 ([4]; Homo sapiens, HCT-116, 96 h) [µM]","IC50 ([5]; Homo sapiens, HCT-116, 96 h) [µM]","IC50 ([6]; Homo sapiens, HT-29, 96 h) [µM]",IC50 [1] [µM],IC50 [6] [µM],IC50 [2] [µM],IC50 [3] [µM],IC50 [4] [µM],IC50 [5] [µM]
"CCN(Cc1ccncc1)Cc1cc2c(s1)C(=O)c1cccnc1C2=O [Example 7, 2-{[ethyl(pyridin-4-ylmethyl)amino]methyl}thieno[2,3-g]quinoline-4,9-dione]",,0.36,0.4,0.51,0.4,,3.04,2.64,,,,
"O=C(NCC(F)F)c1cc2c(s1)C(=O)c1ncccc1C2=O [Example 40, N-(2,2-difluoroethyl)-4,9-dioxo-4,9-dihydroxythieno[3,2-g]quinoline-2-carboxyamide]",,,,,,,0.51,0.55,0.05,0.05,0.08,0.07
"CC(C)(C)OC(=O)NCc1cc2c(s1)C(=O)c1ncccc1C2=O [Example 41, tert-butyl (4,9-dioxo-4,9-dihydrothieno[3,2-g]quinolin-2-yl)methylcarbamate]",3.82,0.46,0.78,0.83,0.7,4.52,,,,,,
"CCN(Cc1cc2c(s1)C(=O)c1cccnc1C2=O)C1CCCCC1 [Example 5, 2-{[cyclohexyl(ethyl)amino]methyl}thieno[2,3-g]quinoline-4,9-dione]",0.57,0.5,0.54,0.39,0.45,0.92,,,,,,
"CC(O)c1cc2c(o1)C(=O)c1sccc1C2=O (stereo not drawn) [Example 53, 2-(1-hydroxyethyl)thieno[3,2-f][1]benzofuran-4,8-dione]",0.59,0.45,0.64,0.56,0.55,0.68,,,,,,
"O=C1c2cnccc2C(=O)c2sc(COCc3ccccc3)cc21 [Example 18, 2-[(benzyloxy)methyl]thieno[2,3-g]isoquinoline-4,9-dione]",> 10,0.63,0.57,5.71,1,> 10,,,,,,
"CC1CNCC(C)(C(=O)c2cc3c(s2)C(=O)c2ncccc2C3=O)C1 (stereo not drawn) [Example 39, 2-[(3,5-dimethylpiperidin-5-yl)carbonyl]thieno[3,2-g]quinoline-4,9-dione]",0.55,0.45,0.09,0.35,0.38,3.71,,,,,,
"CC(O)c1cc2c(o1)C(=O)c1cccnc1C2=O (stereo not drawn) [Example 43, 2-(1-hydroxyethyl)furo[2,3-g]quinoline-4,9-dione]",0.6,0.33,0.66,0.51,0.62,5.62,,,,,,
"CCOC(=O)N(CC)Cc1cc2c(o1)C(=O)c1cccnc1C2=O [Example 11, ethyl [(4,9-dioxo-4,9-dihydrofuro[2,3-g]quinolin-2-yl)methyl]ethylcarbamate]",0.71,0.28,0.45,0.46,0.49,3.85,,,,,,
"CC(O)c1cc2c(s1)C(=O)c1cccnc1C2=O (stereo not drawn) [Example 2, 2-(1-hydroxyethyl)thieno[2,3-g]quinoline-4,9-dione]",0.55,0.12,0.1,0.23,0.08,0.86,,,,,,
"O=C1c2ccncc2C(=O)c2c(C(=O)N3CCOCC3)csc21 [Example 22, 3-(morpholin-4-ylcarbonyl)thieno[2,3-g]isoquinoline-4,9-dione]",0.16,0.31,0.44,0.5,0.48,0.81,,,,,,
"CCOC(=O)/C=C/c1cc2c(s1)C(=O)c1ccncc1C2=O [Example 60, ethyl (E)-3-(4,9-dioxo-4,9-dihydrothieno[2,3-g]isoquinolin-2-yl)acrylate]",8.98,0.83,0.75,7.41,2.71,> 10,,,,,,
"O=C1c2cnccc2C(=O)c2sc(N3CCOCC3)cc21 [Example 32, 2-(morpholin-4-yl)thieno[2,3-g]isoquinoline-4,9-dione]",> 10,1.25,2.15,7.7,6.56,> 10,,,,,,

# Second part, led by results:
"IC50 ([1]; Homo sapiens, HT-29, 96 h) [µM]","IC50 ([2]; Homo sapiens, FaDu, 96 h) [µM]","IC50 ([3]; Homo sapiens, FaDu, 96 h) [µM]","IC50 ([4]; Homo sapiens, HCT-116, 96 h) [µM]","IC50 ([5]; Homo sapiens, HCT-116, 96 h) [µM]","IC50 ([6]; Homo sapiens, HT-29, 96 h) [µM]",SMILES,IC50 [1] [µM],IC50 [6] [µM],IC50 [2] [µM],IC50 [3] [µM],IC50 [4] [µM],IC50 [5] [µM]
0.48,0.04,0.03,0.31,0.1,0.58,"CC(c1cc2c(s1)C(=O)c1ccncc1C2=O)N1CCOCC1 (stereo not drawn) [Example 23, 2-[1-(morpholin-4-yl)ethyl]thieno[2,3-g]isoquinoline-4,9-dione]",,,,,,
0.55,0.05,0.06,0.07,0.07,0.62,"CC(=O)c1cc2c(o1)C(=O)c1cnccc1C2=O [Example 48, 2-acetylfuro[3,2-g]isoquinoline-4,9-dione]",,,,,,
0.17,0.05,0.05,0.26,0.36,0.41,"CC(=O)c1oc2c(c1C(=O)N1CCOCC1)C(=O)c1cnccc1C2=O [Example 47, 2-acetyl-3-(morpholin-4-carbonyl)furo[2,3-g]isoquinoline-4,9-dione]",,,,,,
0.59,0.09,0.08,0.57,0.47,0.63,"O=C1c2cnccc2C(=O)c2sc(CN(CC(F)F)C(=O)C3CCCCC3)cc21 [Example 28, N-(2,2-difluoroethyl)-N-((4,9-dioxo-4,9-dihydrothieno[2,3-g]isoquinolin-2-yl)methyl)cyclohexanecarboxamide]",,,,,,
0.25,0.05,0.09,0.07,0.1,0.73,"CC(=O)c1cc2c(s1)C(=O)c1ncccc1C2=O [Example 36, 2-acetylthieno[3,2-g]quinoline-4,9-dione]",,,,,,
0.58,0.08,0.56,0.06,0.09,0.62,"CC(=O)c1cc2c(o1)C(=O)c1ccsc1C2=O [Example 56, 2-acetylthieno[2,3-f][1]benzofuran-4,8-dione]",,,,,,
0.08,0.03,0.03,0.06,0.06,0.52,"CC(O)c1cc2c(o1)C(=O)c1ccncc1C2=O (stereo not drawn) [Example 45, 2-(1-hydroxyethyl)furo[2,3-g]isoquinoline-4,9-dione]",,,,,,
0.5,0.04,0.04,0.24,0.07,0.64,"COc1c2ccncc2c(OC)c2sc(C(C)O)cc12 (stereo not drawn) [Example 34, 1-(4,9-dimethoxythieno[3,2-g]isoquinolin-2-yl)ethanol]",,,,,,
0.08,0.04,0.03,0.06,0.06,0.51,"CC(=O)c1cc2c(o1)C(=O)c1ccncc1C2=O [Example 44, 2-acetylfuro[2,3-g]isoquinoline-4,9-dione]",,,,,,
0.59,0.08,0.47,0.31,0.54,0.72,"CC(=O)c1cc2c(o1)C(=O)c1cccnc1C2=O [Example 42, 2-acetylfuro[2,3-g]quinoline-4,9-dione]",,,,,,
